# Experimental data from patent US20230103007A1, “COMBINATION THERAPY FOR TREATING ABNORMAL CELL GROWTH” (priority 2020, published 2023).
# Columns and labels:
# [1] = test system: KRAS G12C mt NSCLC and colorectal cancer cell lines (H2122, H358, H2030, H1373, SW837, SW1463); test: 3D proliferation assay in vitro (CellTiter-Glo 3D, synergy analysis); format: cell-based; conditions: 7 days treatment, panel of KRAS G12C mt NSCLC and CRC cell lines, Loewe model
# Method: KRAS G12C mutant NSCLC (H2122, H358, H2030, H1373) and colorectal cancer (CRC; SW837 and SW1463) were used. Briefly, 96-well plates were coated with 50 μL of Matrigel (100%) and incubated at 37° C. and 5% CO2 for 30 min in order for the Matrigel to solidify. Cells were seeded in 100 μL of 2% Matrigel containing medium. After an incubate overnight (17-22 hours) cells were treated with VS-6766 +/−G12C inhibitor +/−Defactinib for 7 days. Cell viability was measured using the cell viability CellTiter-Glo 3D assay. Combination effects were evaluated by comparing the averaged viability/inhibition to two different null reference models derived from the single agent activities. Bliss, Loewe and Highest Single Agent synergy analysis were performed to determine synergy scores.
# [2] = test system: RAS pathway signaling (pMEK, pERK, p-p90RSK); test: Western blot of RAS pathway signaling in KRAS G12C mt NSCLC cell lines; format: cell-based
# Method: KRAS G12C mutant NSCLC cells (H2122, H358, H1373 and SW1573) were seeded in 10-cm dishes. After an incubate overnight (17-22hrs) cells were treated with 100 nM VS-6766 +/−100 nM G12C inhibitor. 4 and 48 hours post compound treatment, cells were collected, and cell lysates prepared using RIPA buffer containing protease inhibitors. Western blot assays were run using antibodies for pMEK, MEK, pERK, ERK, p-p90RSK, p90RSK and actin.
# [3] = test system: pMEK and pERK in H2122 KRAS G12C NSCLC xenograft tumors; test: Pharmacodynamic study in H2122 xenograft tumors (pMEK, pERK western blot); format: in vivo, Balb/c nude mice; conditions: VS-6766 0.3 mg/kg + AMG-510 30 mg/kg, oral, daily for 5 days; tumors harvested 2, 8 and 24 hours after final dose
# Method: (§1) KRAS G12C mutant NSCLC H2122 and H358 tumor cells and Balb/c nude mice were used. Tumor challenge was initiated by subcutaneous inoculation of 1×10^7 tumor cell suspensions into the right flank of recipient mice. Tumor sizes (mm^3) and body weights were measured 3 times per week for the duration of the study. At the time of routine monitoring, the animals were checked for any effects of tumor growth and treatments on normal behavior such as mobility, food and water consumption (by looking only), and body weight gain/loss, eye/hair matting and any other abnormal effect.
# [4] = test system: H2122 KRAS G12C mt NSCLC xenograft; test: Xenograft efficacy study, H2122; format: in vivo, Balb/c nude mice; conditions: for augmentation of tumor growth inhibition by sotorasib: 0.3 mg/kg QD in combination with sotorasib 30 mg/kg QD; for effect on AMG-510 efficacy (change in tumor volume): in combination with AMG-510, H2122 tumor bearing mice, 10 days; for mice with tumor regression, combination with sotorasib: in combination with sotorasib, 10 days of treatment
# Method: as §1
# (§2) For efficacy studies, once tumors reached an average volume of 150-200 mm^3, mice were sorted into 10 groups (n=10): vehicle 1 (5% DMSO, 10% HPCD in sterile water)+vehicle 2 (2% HPMC, 1% Tween 80 in sterile water), VS-6766 in vehicle 1 (0.3 mg/kg PO QD, 28 days)+vehicle 2, AMG-510 in vehicle 2 (30 mg/kg PO QD, 28 days)+vehicle 1, VS-6766+AMG-510, VS-4718 (0.5% CMC-Na, 0.1% Tween 80 in sterile water) (50 mg/kg PO BID, 28 days)+vehicle 2, VS-4718+VS-6766, VS-4718+AMG-510, VS-4718+AMG-510+VS-6766, trametinib (0.3 mg/kg PO QD, 28 days) (0.5% hydroxypropylmethylcellulose and 0.2% Tween-80 in distilled water (pH 8.0))+vehicle 2, and trametinib+AMG-510. Mice were euthanized when tumor volumes>2,000 mm^3.
# [5] = test system: H358 KRAS G12C mt NSCLC xenograft; test: Xenograft efficacy study, H358; format: in vivo, Balb/c nude mice; conditions: in combination with G12Ci (AMG-510); 21 days
# Method: as §1, §2
# [6] = 100 nM VS-6766 + 100 nM AMG-510, 4 and 48 hours
# [7] = 100 nM VS-6766 + 100 nM MRTX849, 4 and 48 hours
SMILES,"synergy in reducing viability, combination with adagrasib [1]","synergy in reducing viability, combination with sotorasib [1]","depth and duration of inhibition of MEK/ERK signaling, added to AMG-510, relative to G12C inhibitor alone [2, 6]","pERK inhibition by combination with AMG-510 versus AMG-510 alone [2, 6]","depth and duration of inhibition of MEK/ERK signaling, added to MRTX849, relative to G12C inhibitor alone [2, 7]","pERK inhibition by combination with MRTX849 versus MRTX849 alone [2, 7]","suppression of RAS pathway signaling (pMEK, pERK, p-p90RSK) as a single agent ([2]; single agent, 100 nM, 4 and 48 hours, KRAS-G12C NSCLC cell lines)","inhibition of pMEK and pERK in tumors, combination with sotorasib relative to sotorasib alone [3]",augmentation of tumor growth inhibition by sotorasib [4],effect on AMG-510 efficacy (change in tumor volume) [4],"mice with tumor regression, combination with sotorasib [4]","mice with tumor reductions of >35%, triple combination ([4]; triple combination of VS-6766, sotorasib and a FAK inhibitor)",effect on efficacy of G12Ci in H358 xenograft model [5]
CNC(=O)c1ccc(Nc2ncc(C(F)(F)F)c(NCc3nccnc3N(C)S(C)(=O)=O)n2)cc1 [defactinib],synergistic,synergistic,–,–,–,–,–,–,–,–,–,–,–
CNS(=O)(=O)Nc1nccc(Cc2c(C)c3ccc(Oc4ncccn4)cc3oc2=O)c1F [VS-6766],synergistic,synergistic,increases depth and duration of inhibition,better,increases depth and duration of inhibition,better,effectively suppressed,improved inhibition,augmented,potentiate,5/10,10/10,enhance
CNC(=O)c1ccccc1Nc1cc(Nc2ccc(N3CCOCC3)cc2OC)ncc1C(F)(F)F [FAK inhibitor],–,–,–,–,–,–,–,–,–,potentiate,4/10,–,enhance
"CC(=O)Nc1cccc(-n2c(=O)n(C3CC3)c(=O)c3c(Nc4ccc(I)cc4F)n(C)c(=O)c(C)c32)c1 [trametinib, reference compound]",–,–,–,–,–,–,–,–,much less effective,–,1/10,–,–
